Data as given in US10023570B2 (Array BioPharma, Inc., priority 2015, dated 2018).
Like-named read-outs stand apart in the source and are kept apart here.

How the values were obtained:
[1] = target: N-terminal GST tagged recombinant human RET cytoplasmic domain (aa 658-end), wild type RET kinase (Homo sapiens (Human), UniProt P07949); assay: RET Enzyme Assay (HTRF KinEASE-TK), wild type RET; format: biochemical; conditions: wild type RET, 1 mM ATP
[2] = target: human KDR protein in HEK-293 cells (Homo sapiens (Human), UniProt P35968); assay: KDR Cell Assay (phospho-KDR in HEK-293 cells expressing inducible KDR); format: cell-based; conditions: pKDR Cell HEK 10% FBS IC50, HEK-293 cells expressing inducible KDR, VEGF stimulated
Sequence of human KDR protein in HEK-293 cells (P35968 20-1356): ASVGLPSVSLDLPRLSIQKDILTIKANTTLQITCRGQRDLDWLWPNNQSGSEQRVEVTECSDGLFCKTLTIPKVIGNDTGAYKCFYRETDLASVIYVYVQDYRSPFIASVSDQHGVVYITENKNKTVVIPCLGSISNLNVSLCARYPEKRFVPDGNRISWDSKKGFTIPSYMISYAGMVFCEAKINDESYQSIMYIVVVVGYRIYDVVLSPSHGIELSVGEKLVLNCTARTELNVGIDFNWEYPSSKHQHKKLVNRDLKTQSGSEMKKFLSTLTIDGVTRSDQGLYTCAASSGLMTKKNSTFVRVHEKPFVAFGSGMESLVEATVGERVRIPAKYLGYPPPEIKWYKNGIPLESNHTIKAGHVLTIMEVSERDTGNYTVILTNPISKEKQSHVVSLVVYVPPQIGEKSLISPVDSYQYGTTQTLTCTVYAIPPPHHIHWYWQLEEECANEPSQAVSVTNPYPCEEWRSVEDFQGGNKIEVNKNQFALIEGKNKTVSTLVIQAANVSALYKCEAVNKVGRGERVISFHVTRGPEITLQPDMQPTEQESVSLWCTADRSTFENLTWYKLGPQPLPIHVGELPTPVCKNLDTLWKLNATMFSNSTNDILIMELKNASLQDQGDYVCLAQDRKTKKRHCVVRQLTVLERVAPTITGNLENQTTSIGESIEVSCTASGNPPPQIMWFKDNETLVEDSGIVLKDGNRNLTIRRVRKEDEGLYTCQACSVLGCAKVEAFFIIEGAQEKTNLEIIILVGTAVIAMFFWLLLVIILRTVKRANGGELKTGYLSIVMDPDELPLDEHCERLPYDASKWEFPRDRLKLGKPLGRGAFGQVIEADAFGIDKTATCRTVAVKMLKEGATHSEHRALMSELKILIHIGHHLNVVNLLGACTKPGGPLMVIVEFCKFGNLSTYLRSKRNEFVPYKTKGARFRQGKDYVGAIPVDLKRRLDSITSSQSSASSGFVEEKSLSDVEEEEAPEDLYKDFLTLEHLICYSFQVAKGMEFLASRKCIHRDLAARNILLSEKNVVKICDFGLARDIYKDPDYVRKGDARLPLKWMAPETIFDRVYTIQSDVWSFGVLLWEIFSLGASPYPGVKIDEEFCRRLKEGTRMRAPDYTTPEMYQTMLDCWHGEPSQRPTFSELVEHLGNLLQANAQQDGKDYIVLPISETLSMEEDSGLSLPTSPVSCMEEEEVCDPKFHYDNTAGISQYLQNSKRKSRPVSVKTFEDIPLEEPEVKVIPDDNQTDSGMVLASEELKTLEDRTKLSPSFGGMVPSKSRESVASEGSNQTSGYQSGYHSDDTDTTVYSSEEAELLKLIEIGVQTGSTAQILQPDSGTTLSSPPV
Summary of the method: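 HEK-293 cells with inducible human KDR were treated with compound for 1 h in DMEM (0.25% DMSO final), then lysed. Phospho-KDR was quantified by Meso Scale immunoassay, expressed as percent of control, and IC50 taken where a 4-parameter logistic fit crossed 50 POC.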

[3] = target: Kif5b-RET fusion protein in HEK-293 cells (Homo sapiens, UniProt P07949); assay: cell-based
Sequence of Kif5b-RET fusion protein in HEK-293 cells (P07949 29-1114 limits assumed): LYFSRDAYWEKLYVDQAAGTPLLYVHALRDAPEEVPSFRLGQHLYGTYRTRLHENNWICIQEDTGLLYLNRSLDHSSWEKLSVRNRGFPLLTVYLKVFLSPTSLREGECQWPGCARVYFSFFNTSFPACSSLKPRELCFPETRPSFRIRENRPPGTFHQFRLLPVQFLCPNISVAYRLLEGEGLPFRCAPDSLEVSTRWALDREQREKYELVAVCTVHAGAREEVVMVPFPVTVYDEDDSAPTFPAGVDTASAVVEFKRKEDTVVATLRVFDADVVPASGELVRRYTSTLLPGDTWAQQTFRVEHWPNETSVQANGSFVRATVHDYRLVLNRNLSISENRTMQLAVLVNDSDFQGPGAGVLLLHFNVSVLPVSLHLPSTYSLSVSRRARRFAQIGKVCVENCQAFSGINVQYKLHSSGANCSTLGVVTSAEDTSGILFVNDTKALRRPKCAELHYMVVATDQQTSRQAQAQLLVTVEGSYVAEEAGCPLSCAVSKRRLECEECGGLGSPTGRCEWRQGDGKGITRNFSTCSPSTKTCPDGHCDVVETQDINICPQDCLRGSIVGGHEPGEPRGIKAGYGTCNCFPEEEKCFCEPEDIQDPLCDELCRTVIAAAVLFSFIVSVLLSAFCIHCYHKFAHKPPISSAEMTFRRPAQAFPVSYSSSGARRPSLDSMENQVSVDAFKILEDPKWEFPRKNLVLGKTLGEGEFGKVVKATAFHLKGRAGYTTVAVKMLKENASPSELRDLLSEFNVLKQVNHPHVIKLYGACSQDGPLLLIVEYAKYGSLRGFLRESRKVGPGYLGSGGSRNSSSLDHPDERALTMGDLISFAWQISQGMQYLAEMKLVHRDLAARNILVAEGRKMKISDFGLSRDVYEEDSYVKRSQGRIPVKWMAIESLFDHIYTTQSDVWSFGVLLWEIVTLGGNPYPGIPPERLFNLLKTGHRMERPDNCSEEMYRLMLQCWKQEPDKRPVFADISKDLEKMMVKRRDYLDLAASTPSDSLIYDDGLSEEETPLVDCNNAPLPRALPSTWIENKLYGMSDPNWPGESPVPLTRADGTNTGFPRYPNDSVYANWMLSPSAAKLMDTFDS

[4] = HEK-293 cells expressing Kif5b-RET, read-out: KIF5B-RET pTYR1062 Cell IC50

Sequence of N-terminal GST tagged recombinant human RET cytoplasmic domain (aa 658-end), wild type RET kinase (P07949 658-1114): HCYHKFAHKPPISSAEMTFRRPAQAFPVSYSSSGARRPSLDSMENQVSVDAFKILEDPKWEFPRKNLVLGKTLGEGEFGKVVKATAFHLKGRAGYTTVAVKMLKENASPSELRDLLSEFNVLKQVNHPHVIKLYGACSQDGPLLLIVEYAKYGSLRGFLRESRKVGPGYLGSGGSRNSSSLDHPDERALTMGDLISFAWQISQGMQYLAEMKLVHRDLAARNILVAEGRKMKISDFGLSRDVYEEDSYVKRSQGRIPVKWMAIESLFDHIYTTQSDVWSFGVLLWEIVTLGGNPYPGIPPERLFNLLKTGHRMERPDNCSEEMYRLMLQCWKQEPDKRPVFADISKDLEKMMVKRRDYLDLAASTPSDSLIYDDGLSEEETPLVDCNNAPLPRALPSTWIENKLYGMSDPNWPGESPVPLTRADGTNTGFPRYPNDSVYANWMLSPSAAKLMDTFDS

IC50 [1] [nM]	IC50 [2] [nM]	IC50 [3, 4] [nM]	SMILES	IC50 [3] [nM]
5.7	1490	4.1	N#Cc1cnn2cc(-c3cn[nH]c3)cc(-c3ccc(N4CCN(Cc5ccccc5)CC4)nc3)c12 [Example 591, 4-(6-(4-benzylpiperazin-1-yl)pyridin-3-yl)-6-(1H-pyrazol-4-yl)pyrazolo[1,5-a]pyridine-3-carbonitrile]	
16.1	283	17.4	C[C@@H](CO)Cn1cc(-c2cc(-c3ccc(N4CCN(Cc5ccccc5)CC4)nc3)c3c(C#N)cnn3c2)cn1 [Example 592, (R)-4-(6-(4-benzylpiperazin-1-yl)pyridin-3-yl)-6-(1-(3-hydroxy-2-methylpropyl)-1H-pyrazol-4-yl)pyrazolo[1,5-a]pyridine-3-carbonitrile]	
13.3	154	12.4	C[C@H](CO)Cn1cc(-c2cc(-c3ccc(N4CCN(Cc5ccccc5)CC4)nc3)c3c(C#N)cnn3c2)cn1 [Example 593, (S)-4-(6-(4-benzylpiperazin-1-yl)pyridine-3-yl)-6-(1-(3-hydroxy-2-methylpropyl)-1H-pyrazol-4-yl)pyrazolo[1,5-a]pyridine-3-carbonitrile]	
34	830	39.7	CCC1(C(=O)NC(C)C)CCN(c2ccc(-c3cc(-c4cnn(C)c4C)cn4ncc(C#N)c34)cn2)CC1 [Example 597, 1-(5-(3-cyano-6-(1,5-dimethyl-1H-pyrazol-4-yl)pyrazolo[1,5-a]pyridin-4-yl)pyridin-2-yl)-4-ethyl-N-isopropylpiperidine-4-carboxamide]	
27.6	4860	16.5	CCC1(C(=O)NC(C)C)CCN(c2ccc(-c3cc(-c4cn(C)nc4C)cn4ncc(C#N)c34)cn2)CC1 [Example 599, 1-(5-(3-cyano-6-(1,3-dimethyl-1H-pyrazol-4-yl)pyrazolo[1,5-a]pyridin-4-yl)pyridin-2-yl)-4-ethyl-N-isopropylpiperidine-4-carboxamide]	
48.1	4440	109	CCc1nn(C)cc1-c1cc(-c2ccc(N3CCN(Cc4ccccc4)CC3)nc2)c2c(C#N)cnn2c1 [Example 610, 4-(6-(4-benzylpiperazin-1-yl)pyridin-3-yl)-6-(3-ethyl-1-methyl-1H-pyrazol-4-yl)pyrazolo[1,5-a]pyridine-3-carbonitrile]	
38.2	431	5.2	CC(C)Cn1cc(-c2cc(-c3ccc(N4CCN(Cc5ccccc5)CC4)nc3)c3c(C#N)cnn3c2)cn1 [Example 612, 4-(6-(4-benzylpiperazin-1-yl)pyridin-3-yl)-6-(1-isobutyl-1H-pyrazol-4-yl)pyrazolo[1,5-a]pyridine-3-carbonitrile]	
15.6	1960	45.7	CC(C)CC(=O)N1CCN(c2ccc(-c3cc(-c4cnn(C)c4)cn4ncc(Cl)c34)cn2)CC1 [Example 646, 1-(4-(5-(3-chloro-6-(1-methyl-1H-pyrazol-4-yl)pyrazolo[1,5-a]pyridin-4-yl)pyridin-2-yl)piperazin-1-yl)-3-methylbutan-1-one]	
16.8	347	5.3	COc1ccc(CN2CCN(c3ccc(-c4cc(-c5cnn(C[C@@H](C)O)c5)cn5ncc(C#N)c45)cn3)CC2)cn1 [Example 700, (R)-6-(1-(2-hydroxypropyl)-1H-pyrazol-4-yl)-4-(6-(4-((6-methoxypyridin-3-yl)methyl)piperazin-1-yl)pyridin-3-yl)pyrazolo[5-a]pyridine-3-carbonitrile]	

SMILES	IC50 [1] [nM]	IC50 [2] [nM]	IC50 [3, 4] [nM]	IC50 [3] [nM]
CCn1cc(-c2cc(-c3ccc(N4CCN(Cc5ccccc5)CC4)nc3)c3c(C#N)cnn3c2)c(C)n1 [Example 609, 4-(6-(4-benzylpiperazin-1-yl)pyridin-3-yl)-6-(1-ethyl-3-methyl-1H-pyrazol-4-yl)pyrazolo[1,5-a]pyridine-3-carbonitrile]	16.5	1980		31.5
CC(C)n1cc(-c2cc(-c3ccc(N4CCN(Cc5ccccc5)CC4)nc3)c3c(C#N)cnn3c2)cn1 [Example 611, 4-(6-(4-benzylpiperazin-1-yl)pyridin-3-yl)-6-(1-isopropyl-1H-pyrazol-4-yl)pyrazolo[1,5-a]pyridine-3-carbonitrile]	11.9	298		2.5
Cc1nn(C(C)C)cc1-c1cc(-c2ccc(N3CCN(Cc4ccccc4)CC3)nc2)c2c(C#N)cnn2c1 [Example 614, 4-(6-(4-benzylpiperazin-1-yl)pyridin-3-yl)-6-(1-isopropyl-3-methyl-1H-pyrazol-4-yl)pyrazolo[1,5-a]pyridine-3-carbonitrile]	22.2	2300		17
